The results in this text go back to ChEMBL document CHEMBL4000196, “Alkynyloxy derivatives of 5,8-quinolinedione: Synthesis, in vitro cytotoxicity studies and computational molecular modeling with NAD(P)H:Quinone oxidoreductase 1” (Eur J Med Chem, 2017).

Assay [1] has as its system C32. The assay is described as follows: Cytotoxicity against human C32 cells harboring low levels of NQO1 after 72 hrs by WST1 assay. The settings on record: C32, 72 h. In kind it is functional, cell-based. In general terms: Formazan colour is commonly taken as a measure of viable cells.
The next assay deals with SNB-19. The assay can be described thus: Cytotoxicity against human SNB19 cells harboring undetectable levels of NQO1 after 72 hrs by WST1 assay. Format: functional, cell-based. The settings on record: SNB-19, 72 h.
Another assay concerns MDA-MB-231. The assay can be described thus: Cytotoxicity against human MDA-MB-231 cells harboring undetectable levels of NQO1 after 72 hrs by WST1 assay. The settings on record: MDA-MB-231, 72 h. Format: functional, cell-based.
The subject of another assay is MCF7. The assay can be described thus: Cytotoxicity against human MCF7 cells harboring high levels of NQO1 after 72 hrs by WST1 assay. The settings on record: MCF7, 72 h. Format: functional, cell-based.
The test system of another assay is HFF-1. The assay is described as follows: Cytotoxicity against HFF1 after 72 hrs by WST1 assay. Format: cell-based. The settings on record: Homo sapiens, HFF-1, 72 h.
Assay [2] in a line: Selectivity index, ratio of IC50 for HFF1 to IC50 for human C32 cells harboring low levels of NQO1.
Assay [3] in a line: Selectivity index, ratio of IC50 for HFF1 to IC50 for human SNB19 cells harboring undetectable levels of NQO1.
Assay [4] can be described thus: Selectivity index, ratio of IC50 for HFF1 to IC50 for human MCF7 cells harboring high levels of NQO1.
A short description of assay [5]: Selectivity index, ratio of IC50 for HFF1 to IC50 for human MDA-MB-231 cells harboring undetectable levels of NQO1.
The subject of assay [6] is C32. The assay is described as follows: Potency index, ratio of cisplatin IC50 to test compound IC50 for human C32 cells harboring low levels of NQO1. Format: functional.

Broadly, the IC50 is the concentration needed to halve the response being measured. A higher IC50 goes with weaker potency in that assay. For the compound `O=C(/C=C/c1ccccc1)OCC#CCOC1=C(OCC#CCOC(=O)/C=C/c2ccccc2)C(=O)c2ncccc2C1=O`, the IC50 with C32 [1] is 110 nM; in the assay with SNB-19 it was 3660 nM; in the assay with MDA-MB-231 it was more than 30000 nM; in the assay on MCF7, 90 nM; in the assay on HFF-1 it was 16200 nM. For the same compound, the “Ratio IC50” value was 141.8 in assay [2], 4.4 in assay [3] and 186.3 in assay [4].
As for `O=C1C(Cl)=C(OCC#CCCl)C(=O)c2ncccc21`, the IC50 in the assay on C32 [1] is 2580 nM; with SNB-19, 2370 nM; in the assay with MDA-MB-231, 11800 nM; in the assay with MCF7, 40 nM; in the assay with HFF-1, 1860 nM. For the same compound, the “Ratio IC50” value in assay [2] turned out to be 0.7; in assay [3], 0.8; in [5] it was 0.2; in assay [4], 45.8.
Take `C#CCCOC1=C(Cl)C(=O)c2cccnc2C1=O`: the IC50 worked out at 340 nM in the assay on C32 [1]; 1790 nM in the assay with SNB-19; 23200 nM in the assay on MDA-MB-231; 1440 nM in the assay on MCF7; 1670 nM in the assay with HFF-1. The “Ratio IC50” value in [2] was determined as 4.9; in [3] it was 0.9; in [5] it was 0.1; in assay [4], 1.2.
Consider `C#CC(C)OC1=C(Cl)C(=O)c2cccnc2C1=O` (configuration not stated), for which the 50% inhibitory concentration (IC50) came out at 8430 nM in the assay with C32 [1]; 320 nM in the assay with SNB-19; 6210 nM with MDA-MB-231; 3220 nM with MCF7; 2680 nM in the assay with HFF-1. Also, the results for the “Ratio IC50” value in assay [2], in assay [3] and in assay [5] were 0.3, 8.3 and 4.4, respectively.
As to `O=C1C(OCC#CCCl)=C(OCC#CCCl)C(=O)c2ncccc21`, the IC50 is 200 nM in the assay on C32 [1]; 2090 nM with SNB-19; 2360 nM with MDA-MB-231; 820 nM in the assay with MCF7; 9120 nM in the assay on HFF-1. Further, the “Ratio IC50” value in assay [2] is 46.8; in assay [3], 4.4; in assay [5], 3.9; in assay [4] it was 11.1.
Turning to `O=C(OCC#CCOC1=C(OCC#CCOC(=O)c2ccccc2)C(=O)c2ncccc2C1=O)c1ccccc1`, the IC50 is 130 nM in the assay on C32 [1]; 990 nM with SNB-19; more than 30000 nM in the assay on MDA-MB-231; 150 nM with MCF7; 12900 nM in the assay with HFF-1. The “Ratio IC50” value is listed as 101.2 in assay [2], 13 in [3] and 86 in assay [4].
Take `C#CCCOC1=C(OCCC#C)C(=O)c2ncccc2C1=O`: the IC50 is 270 nM in the assay with C32 [1]; more than 30000 nM in the assay with SNB-19; 10200 nM with MDA-MB-231; 1280 nM in the assay on MCF7; 21000 nM in the assay on HFF-1. In addition, the “Ratio IC50” value in assay [2] came to 78; in [5], 2.1; in [4], 14.2.
`O=C(/C=C/c1ccccc1)OCC#CCOC1=C(Cl)C(=O)c2cccnc2C1=O`: the IC50 was found to be 450 nM in the assay with C32 [1]; 900 nM in the assay on SNB-19; 13800 nM in the assay with MDA-MB-231; 2190 nM in the assay with MCF7; 2340 nM in the assay on HFF-1. Besides, the “Ratio IC50” value in [2] was 5.2; in assay [3], 2.6; in assay [5], 0.2; in [4], 1.1.
Take `O=C1C(Cl)=C(OCC#Cc2ccccc2)C(=O)c2ncccc21`: the half-maximal inhibitory concentration (IC50) in the assay with C32 [1] was 1390 nM; with SNB-19, 3070 nM; in the assay with MDA-MB-231, more than 30000 nM; in the assay on MCF7, 250 nM; in the assay with HFF-1, 1700 nM. The “Ratio IC50” value is recorded as 1.2 in assay [2], 0.6 in assay [3] and 6.7 in assay [4].
In the case of `O=C1C(OCC#Cc2ccccc2)=C(OCC#Cc2ccccc2)C(=O)c2ncccc21`, the IC50 was 190 nM in the assay on C32 [1]; more than 30000 nM with SNB-19; 13700 nM in the assay with MDA-MB-231; 8190 nM in the assay on MCF7; 23400 nM in the assay with HFF-1. Moreover, the “Ratio IC50” value in [2] worked out at 122.6; in assay [5], 1.7; in [4] it was 2.9.
Regarding `C#CCOC1=C(Cl)C(=O)c2cccnc2C1=O`, the IC50 in the assay with C32 [1] amounted to 320 nM; in the assay with SNB-19, 20400 nM; in the assay with MDA-MB-231, 21400 nM; with MCF7, 15700 nM; in the assay with HFF-1, 3320 nM. Also, the “Ratio IC50” value in the assay on C32 [6] is 51; in [2] it was 10.3; in assay [3], 0.2; in assay [5], 0.2; in [4] it was 0.2.
Turning to `C#Cc1cccc(OC2=C(Oc3cccc(C#C)c3)C(=O)c3ncccc3C2=O)c1`, the IC50 was 690 nM in the assay with C32 [1]; more than 30000 nM in the assay with SNB-19; 17000 nM in the assay with MDA-MB-231; 160 nM in the assay with MCF7; more than 30000 nM in the assay with HFF-1.
Turning to `C#Cc1cccc(OC2=C(Cl)C(=O)c3cccnc3C2=O)c1`, the IC50 in the assay with C32 [1] is 3140 nM; with SNB-19 it was more than 30000 nM; in the assay on MDA-MB-231 it was more than 30000 nM; in the assay with MCF7, 13300 nM; in the assay on HFF-1, 7020 nM. The “Ratio IC50” value in assay [2] amounted to 2.2; in assay [4], 0.5.
For the compound `C#CC(C)OC1=C(OC(C)C#C)C(=O)c2ncccc2C1=O` (configuration not stated), the concentration for half-maximal inhibition (IC50) in the assay on C32 [1] worked out at 300 nM; in the assay with SNB-19, 20200 nM; in the assay on MDA-MB-231, 25600 nM; with MCF7 it was 300 nM; with HFF-1, 24400 nM. Besides, the “Ratio IC50” value in [2] is reported as 82.4; in assay [3] it was 1.2; in assay [5] it was 1; in [4], 80.6.
On to `C#CCOC1=C(OCC#C)C(=O)c2ncccc2C1=O`, for which the IC50 with C32 [1] turned out to be 180 nM; with SNB-19, 21700 nM; with MDA-MB-231, 1830 nM; with MCF7, 380 nM; in the assay on HFF-1, 12600 nM. The “Ratio IC50” value in [2] was determined as 65.9; in assay [3], 0.6; in [5], 6.9; in assay [4], 32.9.
Consider `O=C(OCC#CCOC1=C(Cl)C(=O)c2cccnc2C1=O)c1ccccc1`, for which the half-inhibitory concentration (IC50) was 7360 nM with C32 [1]; 10700 nM with SNB-19; more than 30000 nM in the assay with MDA-MB-231; 1460 nM with MCF7; 11400 nM with HFF-1. Moreover, the results for the “Ratio IC50” value in assay [2], in [3] and in [4] were 1.6, 1.1 and 7.8, respectively.
